Test results reported in ChEMBL document CHEMBL3817815, “Impact of Binding Site Comparisons on Medicinal Chemistry and Rational Molecular Design” (J Med Chem, 2016).
Converted amounts (≈) assume the structure as drawn.

How the values were obtained:
[1] = molecular target: T1, Prostaglandin G/H synthase 1 (Homo sapiens, UniProt P23219); experiment: Inhibition of human recombinant COX1 expressed in Sf9 cell microsomes assessed as reduction in conversion of arachidonic acid to PGE2 incubated for 5 mins by HTRF assay
T1 sequence (P23219 whole entry): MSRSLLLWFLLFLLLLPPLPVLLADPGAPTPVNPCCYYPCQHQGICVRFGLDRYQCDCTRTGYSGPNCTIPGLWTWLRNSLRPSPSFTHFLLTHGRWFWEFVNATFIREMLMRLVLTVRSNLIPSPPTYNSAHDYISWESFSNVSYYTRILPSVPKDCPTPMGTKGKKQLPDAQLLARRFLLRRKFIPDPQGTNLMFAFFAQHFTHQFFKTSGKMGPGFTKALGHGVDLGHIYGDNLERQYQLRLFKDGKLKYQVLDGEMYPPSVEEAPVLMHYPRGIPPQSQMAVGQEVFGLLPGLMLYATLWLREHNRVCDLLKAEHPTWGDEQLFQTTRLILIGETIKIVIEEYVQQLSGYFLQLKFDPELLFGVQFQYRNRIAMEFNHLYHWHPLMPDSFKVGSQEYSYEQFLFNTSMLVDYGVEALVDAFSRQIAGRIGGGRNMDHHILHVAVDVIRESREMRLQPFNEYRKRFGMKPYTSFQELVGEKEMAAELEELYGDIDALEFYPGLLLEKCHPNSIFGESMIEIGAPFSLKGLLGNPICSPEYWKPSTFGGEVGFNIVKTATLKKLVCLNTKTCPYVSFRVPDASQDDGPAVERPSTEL

[2] = molecular target: T1, Prostaglandin G/H synthase 1; experiment: Inhibition of human recombinant COX1 expressed in Sf9 cell microsomes assessed as reduction in conversion of arachidonic acid to PGE2 at 250 uM incubated for 5 mins by HTRF assay
[3] = molecular target: T2, Replicase polyprotein 1ab (Severe acute respiratory syndrome-related coronavirus, UniProt P0C6X7); experiment: Binding affinity to SARS coronavirus main proteinase 3C-like protease
Acetylcholinesterase = Acetylcholinesterase (Homo sapiens, UniProt P22303); experiment: Inhibition of AChE (unknown origin)
Sequence of Acetylcholinesterase (P22303 whole entry): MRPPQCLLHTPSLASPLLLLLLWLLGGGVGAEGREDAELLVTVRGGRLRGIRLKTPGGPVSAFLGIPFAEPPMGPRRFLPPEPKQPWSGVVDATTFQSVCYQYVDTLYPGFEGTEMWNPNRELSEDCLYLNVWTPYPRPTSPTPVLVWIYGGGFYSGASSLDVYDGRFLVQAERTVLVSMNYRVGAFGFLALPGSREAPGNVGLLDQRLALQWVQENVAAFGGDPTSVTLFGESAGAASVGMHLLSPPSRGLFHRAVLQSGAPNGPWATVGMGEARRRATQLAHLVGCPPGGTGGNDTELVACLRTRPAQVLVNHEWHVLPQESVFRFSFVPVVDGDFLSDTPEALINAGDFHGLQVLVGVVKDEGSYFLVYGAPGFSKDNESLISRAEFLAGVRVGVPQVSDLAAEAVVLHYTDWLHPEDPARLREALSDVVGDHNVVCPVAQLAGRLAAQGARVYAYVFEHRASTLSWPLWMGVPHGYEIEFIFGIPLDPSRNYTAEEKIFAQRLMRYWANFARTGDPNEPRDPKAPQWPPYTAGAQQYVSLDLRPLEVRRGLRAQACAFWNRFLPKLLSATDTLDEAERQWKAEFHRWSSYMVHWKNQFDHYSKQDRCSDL

[4] = system: Mycobacterium tuberculosis; experiment: Inhibition of Mycobacterium tuberculosis InhA at 80 uM using DD-CoA and NADH
[5] = system: Mycobacterium tuberculosis; experiment: Antimicrobial activity against Mycobacterium tuberculosis str. Erdman assessed as complete inhibition of growth incubated for 14 days by microplate assay; format: functional; settings: Erdman = ATCC 35801, 336 h
[6] = molecular target: T2, Replicase polyprotein 1ab; experiment: Inhibition of SARS coronavirus main proteinase 3C-like protease
Beta-secretase 1 = Beta-secretase 1 (Homo sapiens, UniProt P56817); experiment: Inhibition of BACE1 (unknown origin)
Sequence of Beta-secretase 1 (P56817 whole entry): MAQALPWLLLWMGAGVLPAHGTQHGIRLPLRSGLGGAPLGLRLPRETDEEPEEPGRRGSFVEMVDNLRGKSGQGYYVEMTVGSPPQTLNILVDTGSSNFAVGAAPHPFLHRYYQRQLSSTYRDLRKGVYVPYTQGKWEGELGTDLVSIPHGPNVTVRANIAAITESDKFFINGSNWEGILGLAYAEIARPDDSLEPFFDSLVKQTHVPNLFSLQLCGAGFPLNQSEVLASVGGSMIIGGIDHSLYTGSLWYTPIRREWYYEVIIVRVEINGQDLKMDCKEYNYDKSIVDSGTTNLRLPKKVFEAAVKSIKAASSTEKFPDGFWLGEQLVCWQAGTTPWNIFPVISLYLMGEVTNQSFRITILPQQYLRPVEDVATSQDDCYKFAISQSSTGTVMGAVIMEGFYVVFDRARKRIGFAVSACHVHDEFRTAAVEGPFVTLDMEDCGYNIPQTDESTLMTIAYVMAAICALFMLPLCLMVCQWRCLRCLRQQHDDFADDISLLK

SMILES	Ki [3]	IC50 [6]	also measured
O=C(O)c1ccccc1O [SALICYLIC ACID]			IC50 [1]: 500 µM
Cc1ccc(C)c(OCCCC(C)(C)C(=O)O)c1			inhibition [2]: 18%
CC(=O)N[C@@H](CC(=O)O)C(=O)N[C@@H](CO)C(=O)N[C@@H](Cc1ccccc1)C(=O)N[C@@H](CC(=O)O)C(=O)N[C@@H](CCC(N)=O)C(=O)O	41 µM		
Cc1ccc(Nc2nccc(N(C)c3ccc4c(C)n(C)nc4c3)n2)cc1S(N)(=O)=O [PAZOPANIB]			IC50 (Acetylcholinesterase): 0.93 µM
CCN(CC)C(=O)/C(C#N)=C/c1cc(O)c(O)c([N+](=O)[O-])c1 [ENTACAPONE]			inhibition [4]: 47%; MIC99 [5]: 260 µM (≈ 79.4 µg/mL)
CC(=O)N[C@@H](CC(N)=O)C(=O)N[C@@H](CO)C(=O)N[C@@H](Cc1ccccc1)C(=O)N[C@@H](CO)C(=O)N[C@@H](CCC(N)=O)C(=O)O	72 µM		
CC(C)(Oc1ccc(Cl)cc1)C(=O)O			inhibition [2]: 14%
CC(=O)N[C@@H](CC(N)=O)C(=O)N[C@@H](CO)C(=O)N[C@H](C(=O)N[C@@H](CC(=O)O)C(=O)N[C@H](C=O)CCC(N)=O)[C@@H](C)O		20 µM	
COc1cc2ncnc(Nc3ccc(F)c(Cl)c3)c2cc1OCCCN1CCOCC1 [GEFITINIB]			IC50 (Beta-secretase 1): 20 µM
CC(=O)N[C@@H](Cc1cnc[nH]1)C(=O)N[C@@H](CO)C(=O)N[C@H](C(=O)N[C@@H](CC(C)C)C(=O)N[C@H](C=O)CCC(N)=O)[C@@H](C)O		> 50 µM	
CC(=O)N[C@@H](CC(=O)O)C(=O)N[C@@H](CO)C(=O)N[C@H](C(=O)N[C@@H](CC(C)C)C(=O)N[C@H](C=O)CCC(N)=O)[C@@H](C)O		10 µM	
CC(=O)N[C@@H](CC(N)=O)C(=O)N[C@@H](CO)C(=O)N[C@H](C(=O)N[C@@H](CO)C(=O)N[C@H](C=O)CCC(N)=O)[C@@H](C)O	40 µM	7.5 µM	
CC(=O)N[C@@H](CCC(=O)O)C(=O)N[C@@H](CO)C(=O)N[C@H](C(=O)N[C@@H](CC(C)C)C(=O)N[C@H](C=O)CCC(N)=O)[C@@H](C)O	8 µM	7.5 µM	
